This experiment concerns the target GABA-A receptor. Description: 35S-TBPS binding assay (GABAA receptor binding ability assay). Set-up: species or system Sprague-Dawley rat. Conditions: rat cerebral cortex cell membrane, 5 μM GABA, 2 nM 35S-TBPS; read-out: IC50 on inhibiting the TBPS binding activity, 35S-TBPS bindng assay. The method, boiled down:
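Male Sprague-Dawley rat cerebral cortex membranes in PBS, preincubated with compound (1% DMSO, 8-point 3-fold series) 5 min at 25° C, then GABA 5 μM final 5 min, then 2 nM 35S-TBPS for 20 h at 4° C. Bound radioactivity filtered on PEI-treated GF/C and counted. % inhibition relative to DMSO and 10 μM P026-2 controls; IC50 from 4-parameter fit.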

Molecules are shown by their SMILES.

Regarding `C[C@@H]1C[C@H](C(=O)Cn2ccc(C#N)n2)[C@@]2(C)CC[C@H]3[C@@H](CC[C@@H]4C[C@](C)(O)CC[C@@H]43)[C@H]12` [Example 40, 1-(2-((3R,5R,8R,9R,10S,13S,14S,15R,17S)-3-Hydroxy-3,13,15-trimethylhexadecahydro-1H-cyclopenta[a]phenanthren-17-yl)-2-oxoethyl)-1H-pyrazole-3-carbonitrile], the half-inhibitory concentration (IC50) (as a rule, the concentration at which inhibition is half-maximal) is 8.2 nM.
Turning to `C[C@@]1(O)CC[C@H]2[C@H](CC[C@@H]3[C@@H]2CC[C@@]2(C)[C@H]3[C@@H]3C[C@@H]3[C@@H]2C(=O)Cn2ccc(C#N)n2)C1` [Example 2, 1-(2-((2R,4aS,4bR,6aS,7S,7aS,8aR,8bR,8cR,10aR)-2-Hydroxy-2,6a-dimethyloctadecahydrocyclopropa[4,5]cyclopenta[1,2-a]phenanthren-7-yl)-2-oxoethyl)-1H-pyrazole-3-carbonitrile], the IC50 is 14.9 nM.

The values are drawn from US12590118B2, “Salt and crystal form of steroid derivative regulator” (Shanghai Hansoh Biomedical Co., Ltd., priority 2019, dated 2026).
